The values that follow come from patent US20040023295A1, “Methods and systems for analyzing complex biological systems” (priority 2001, published 2004).

Entries after “also recorded” stand apart in the source; their conditions may differ.

Test [1] has as its system Arabidopsis thaliana plants. As to the kind of experiment: Phenotypic analysis of herbicide-treated Arabidopsis plants (SOA1). The test is classed as in vivo. The conditions noted are these: for Dev. leafWidth: numeric values standardized to the average response for the mock treated tissues; for Dev. leafCurling / Dev. leafTwisting / Dev. matureLeafAnthocyanins / Dev. matureLeafChlorosis / Dev. matureLeafNecrosis / Dev. newLeafAnthocyanins / Dev. newLeafChlorosis / Dev. newLeafNecrosis / Dev. pointedLeaves: standardized to mock treated; for Symptom Class: three-week-old Arabidopsis sprayed with herbicide, phenotype classes of FIG. 12; for Dev. tMic: time for full range of symptoms at MIC, coded score; for characteristic symptoms (morphological phenotype): herbicide-treated Arabidopsis.

For test [2], the system named is Arabidopsis thaliana. As to the kind of experiment: Gene expression profiling of sprayed Arabidopsis (MOA1). The test is classed as in vivo. The conditions noted are these: for No. of Lethal Genes Altered: regulated genes identified as essential genes in internal database.
The subject of test [3] is Saccharomyces cerevisiae wild type strain BY4743. In words: Yeast azole drug experiment AF1: metabolite analysis (GC-MS, LC-MS). The format is cell-based.
Test [4] deals with Arabidopsis thaliana. As to the kind of experiment: Biochemical (metabolite) profiling by LC-MS and GC-MS of sprayed Arabidopsis (MOA1). The conditions noted are these: for stress related (commonly regulated) metabolites: within one hour after spraying.
[5] abbreviates: early time points (20 min, 1 hour).
Setting [6] is: 1 hr, p < 0.5, arrays containing 22,000 Arabidopsis genes.

For `O=C(O)COc1ccc(Cl)cc1Cl` [2,4-D], in test [1], the “Dev. leafWidth” value is −1, the “Dev. leafCurling” value is given as 1, the “Dev. leafTwisting” value came to 2 and the “Dev. matureLeafAnthocyanins” value amounted to 1. In test [1], the “Dev. matureLeafChlorosis” value is given as 2, the “Dev. matureLeafNecrosis” value is 0, the “Dev. newLeafAnthocyanins” value worked out at 0 and the “Dev. newLeafChlorosis” value came out at 1. In test [1], the “Dev. newLeafNecrosis” value was found to be 0, the “Dev. pointedLeaves” value turned out to be 0, the “Symptom Class” value is on record as 5 and the “Dev. tMic” value is reported as 2.
Consider `O=C(O)c1cc(Oc2ccc(C(F)(F)F)cc2Cl)ccc1[N+](=O)[O-]` [Acifluorfen], for which, in test [1], the “characteristic symptoms (morphological phenotype)” value was “Necrotic leaf flecks”.
As for `COC(=O)NS(=O)(=O)c1ccc(N)cc1` [Asulam], the “No. of Lethal Genes Altered” value in test [2] stood at 5.
`CCNc1nc(Cl)nc(NC(C)C)n1` [Atrazine]: in test [1], the “characteristic symptoms (morphological phenotype)” value is “rapid and widespread leaf necrosis”.
Same read-out and setting: with `CC(C)N1C(=O)c2ccccc2NS1(=O)=O` [Bentazon] the entry was “rapid and widespread leaf necrosis”; with `COC(=O)c1cc(Oc2ccc(Cl)cc2Cl)ccc1[N+](=O)[O-]` [Bifenox], “Necrotic leaf flecks”.
For `COc1nc(C)nc(NC(=O)NS(=O)(=O)c2ccccc2Cl)n1` [Chlorsulfuron], the “No. of Lethal Genes Altered” value in test [2] came to 8. In addition, the “characteristic symptoms (morphological phenotype)” value in test [1] is on record as “anthocyanin accumulation in the older leaves accompanied by chlorosis of the newly emerging leaves”.
In the case of `c1cc[n+]2c(c1)-c1cccc[n+]1CC2` [Diquat], in test [1], the “characteristic symptoms (morphological phenotype)” value is “rapid and widespread leaf necrosis”; the “Dev. leafWidth” value is reported as −2; the “Dev. leafCurling” value turned out to be 2; the “Dev. leafTwisting” value is 0. Besides, in test [1], the “Dev. matureLeafAnthocyanins” value came out at 0, the “Dev. matureLeafChlorosis” value is 1, the “Dev. matureLeafNecrosis” value turned out to be 4 and the “Dev. newLeafAnthocyanins” value was determined as 0. In test [1], the “Dev. newLeafChlorosis” value was found to be 1, the “Dev. newLeafNecrosis” value is 4, the “Dev. pointedLeaves” value is on record as 1 and the “Symptom Class” value came to 7. The “Dev. tMic” value in test [1] amounted to 2.
Take `CN(C)C(=O)Nc1ccc(Cl)c(Cl)c1` [Diuron]: in test [1], the “characteristic symptoms (morphological phenotype)” value is “rapid and widespread leaf necrosis”; the “Dev. leafWidth” value is −2; the “Dev. leafCurling” value was found to be 1; the “Dev. leafTwisting” value is on record as 0. For the same molecule, in test [1], the “Dev. matureLeafAnthocyanins” value is recorded as 0, the “Dev. matureLeafChlorosis” value was determined as 2, the “Dev. matureLeafNecrosis” value is on record as 4 and the “Dev. newLeafAnthocyanins” value is 0. Moreover, in test [1], the “Dev. newLeafChlorosis” value is 2, the “Dev. newLeafNecrosis” value is 4, the “Dev. pointedLeaves” value was 1 and the “Symptom Class” value is given as 7. In addition, the “Dev. tMic” value in test [1] worked out at 1.
Regarding `OC(Cn1cncn1)(Cn1cncn1)c1ccc(F)cc1F` [Fluconazole], in test [3] (GC), the “Fold Change campesterol” value is on record as 0, the “Fold Change desmosterol” value came to 0 and the “Fold Change octadecanoic acid” value is recorded as 0.082. Besides, in test [3] (nLC), the “Fold Change 4-methylcatechol” value stood at 0, the “Fold Change 5hydroxyL-tryptophan” value worked out at 0, the “Fold Change 6-benzylaminopurine” value worked out at 0 and the “Fold Change NacetylD-glucosamine” value is 0. Besides, in test [3] (nLC), the “Fold Change NacetylL-ornithine” value is recorded as 0, the “Fold Change abscisic acid” value was determined as 0, the “Fold Change adenine” value amounted to 0 and the “Fold Change adenosine” value came out at 0. In test [3] (nLC), the “Fold Change anthranilic acid” value is listed as 0, the “Fold Change argininosuccinate” value is reported as 0, the “Fold Change benzoic acid” value was 0 and the “Fold Change catechol” value is 0. In addition, in test [3] (nLC), the “Fold Change cinnamic acid” value is recorded as 0, the “Fold Change citricanoic/itaconi” value is listed as 0, the “Fold Change citrulline” value is given as 0 and the “Fold Change coumaric acid” value worked out at 0. In test [3] (nLC), the “Fold Change cytosine” value is on record as 0, the “Fold Change diaminopimelic acid” value is recorded as 0, the “Fold Change dihydrofolic acid” value is 0 and the “Fold Change estrone” value turned out to be 0. Further, in test [3] (nLC), the “Fold Change farnesol” value is 0, the “Fold Change folic acid” value was determined as 0, the “Fold Change gibberellic” value came out at 0 and the “Fold Change guanine” value was determined as 0. In test [3] (nLC), the “Fold Change histidine” value turned out to be 0, the “Fold Change homogentisic/uric” value stood at 0, the “Fold Change hydrocortisone” value is on record as 0 and the “Fold Change indole3-pyruvic acid” value turned out to be 0. In test [3] (nLC), the “Fold Change jasmonic acid” value stood at 0, the “Fold Change kinetin” value was 0, the “Fold Change luteolin” value is listed as 0 and the “Fold Change malonic acid” value worked out at 0. For the same molecule, in test [3] (nLC), the “Fold Change methionine” value is listed as 0, the “Fold Change orotic acid” value was found to be 0, the “Fold Change phenylpyruvic acid” value turned out to be 0 and the “Fold Change phosphoenolpyruvate” value is given as 0. For the same molecule, in test [3] (nLC), the “Fold Change pinitol” value turned out to be 0, the “Fold Change porphobilinogen” value worked out at 0, the “Fold Change retinoic acid” value was 0 and the “Fold Change salicylic/HObenzoic” value is 0. Moreover, in test [3] (nLC), the “Fold Change shikimic acid” value was 0, the “Fold Change sinapinic acid” value is given as 0, the “Fold Change thymine” value is recorded as 0 and the “Fold Change urocanic acid” value stood at 0. For the same molecule, in test [3] (nLC), the “Fold Change xanthosine-DiH2O” value was 0 and the “Fold Change zeatin” value came out at 0. Moreover, in test [3] (pLC), the “Fold Change 4-aminobenzoic acid” value came out at 0, the “Fold Change 4-methylcatechol” value was found to be 0, the “Fold Change 5hydroxyL-tryptophan” value is 0 and the “Fold Change 6benzylaminopurine” value was 0. In test [3] (pLC), the “Fold Change NacetylD-glucosamine” value was 0, the “Fold Change NacetylL-glutamate” value is 0, the “Fold Change abscisic acid” value worked out at 0 and the “Fold Change adenosine” value is 0. Also, in test [3] (pLC), the “Fold Change allantoic acid” value was determined as 0, the “Fold Change anthranilic acid” value turned out to be 0, the “Fold Change argininosuccinate” value stood at 0 and the “Fold Change biotin” value amounted to 0. Also, in test [3] (pLC), the “Fold Change caffeine” value was 0, the “Fold Change citric acid TME” value was 0, the “Fold Change cytidine” value was found to be 0 and the “Fold Change cytosine” value is reported as 0. Further, in test [3] (pLC), the “Fold Change diaminopimelic acid” value is listed as 0, the “Fold Change dihydrofolic acid” value stood at 0, the “Fold Change dipicolinic acid” value is listed as 0 and the “Fold Change folic acid” value is 0. In addition, in test [3] (pLC), the “Fold Change glucosamine” value stood at 0, the “Fold Change glucosamine6PO4” value came to 0, the “Fold Change histidine” value came out at 0 and the “Fold Change hydrocortisone” value was 0. For the same molecule, in test [3] (pLC), the “Fold Change itaconic acid dimes” value is listed as 0, the “Fold Change kinetin” value is recorded as 0, the “Fold Change luteolin” value came out at 0 and the “Fold Change niacinamide” value amounted to 0. In test [3] (pLC), the “Fold Change nopaline” value was determined as 0, the “Fold Change phosphoenolpyruvate” value is reported as 0, the “Fold Change progesterone” value turned out to be 0 and the “Fold Change riboflavin” value came out at 0. In test [3] (pLC), the “Fold Change sugar-phosphate” value was 0, the “Fold Change thiamine” value worked out at 0, the “Fold Change thymine” value came to 0 and the “Fold Change tryptophan” value turned out to be 0. Moreover, in test [3] (pLC), the “Fold Change uric acid” value turned out to be 0, the “Fold Change urocanic acid” value is 0, the “Fold Change xanthosine (diH2O)” value is 0 and the “Fold Change zeatin” value is recorded as 0.
On to `CC(C)C1(C)N=C(c2ncccc2C(=O)O)NC1=O` (stereo not shown) [Imazapyr], for which the “stress related (commonly regulated) metabolites” value in test [4] is reported as “Only a few, if any”. Further, in test [1], the “characteristic symptoms (morphological phenotype)” value is recorded as “anthocyanin accumulation in the older leaves accompanied by chlorosis of the newly emerging leaves”.
As for `CCc1cnc(C2=NC(C)(C(C)C)C(=O)N2)c(C(=O)O)c1` (stereo not shown) [Imazethapyr], the “characteristic symptoms (morphological phenotype)” value in test [1] is reported as “anthocyanin accumulation in the older leaves accompanied by chlorosis of the newly emerging leaves”.
With `CS(=O)(=O)c1cc(C(F)(F)F)ccc1C(=O)c1cnoc1C1CC1` [Isoxaflutole], the “alterations in the expression of genes involved in the homogentisate biosynthetic pathway” value in test [2] (MOA1, 1 hr) is “not observed”. The “No. of Lethal Genes Altered” value in test [2] is listed as 15. Also, the “Alpha-tocopherol level relative to the control” value in test [4] (early time points) is on record as “not significantly changed”. For the same molecule, in test [4] (setting [5]), the “phenylalanine level relative to the control” value is “up-regulated; also recorded: began to accumulate relative to the control” and the “tyrosine level relative to the control” value is listed as “up-regulated; also recorded: began to accumulate relative to the control”.
On to `CSc1nnc(C(C)(C)C)c(=O)n1N` [Metribuzin], for which the “characteristic symptoms (morphological phenotype)” value in test [1] was “rapid and widespread leaf necrosis”.
For `O=C(O)c1ccccc1C(=O)Nc1cccc2ccccc12` [Naptalam], in test [2] (setting [6]), the “Regulated Genes: Down” value is listed as 47 and the “Regulated Genes: Up” value worked out at 50. Further, in test [2], the “No. of Lethal Genes Altered” value is reported as 3.
As to `CNc1cnn(-c2cccc(C(F)(F)F)c2)c(=O)c1Cl` [Norflurazon], in test [4], the “stress related (commonly regulated) metabolites” value is listed as “Only a few, if any”.
On to `C[n+]1ccc(-c2cc[n+](C)cc2)cc1` [Paraquat], for which, in test [1], the “characteristic symptoms (morphological phenotype)” value was “rapid and widespread leaf necrosis”; the “Dev. leafWidth” value is −1; the “Dev. leafCurling” value came out at 2; the “Dev. leafTwisting” value was 0. Moreover, in test [1], the “Dev. matureLeafAnthocyanins” value came to 0, the “Dev. matureLeafChlorosis” value came to 1, the “Dev. matureLeafNecrosis” value was determined as 4 and the “Dev. newLeafAnthocyanins” value is on record as 0. In test [1], the “Dev. newLeafChlorosis” value amounted to 1, the “Dev. newLeafNecrosis” value was 4, the “Dev. pointedLeaves” value came to 1 and the “Dev. tMic” value was found to be 2.
For the molecule `CC[C@@H]([C@H](C)O)n1ncn(-c2ccc(N3CCN(c4ccc(OC[C@@H]5CO[C@@](Cn6cncn6)(c6ccc(F)cc6F)C5)cc4)CC3)cc2)c1=O` [Posaconazole], the “Fold Change: 4-aminobenzoic acid” value in test [3] (platform nLC) amounted to 0.
